Columns and labels:
B16F10 cells = test: Multivesicular bodies and exosome secretion of B16F10 cells treated with DDA; assay type: cell-based, mouse
[1] = test system: E0771 sh control or E0771 sh LXR tumors; test: Tumor growth and survival, E0771 sh control or E0771 sh LXR tumors, DDA treatment; assay type: in vivo, mouse
Description: FIGS. 13A-B. Tumor growth analysis (A) Exponentially growing E0771 sh control or E0771 sh LXR cells were collected, washed twice in PBS and resuspended in PBS (300,000 cells in 100 μl PBS). […] mice were grafted subcutaneously with 300 000 E0771 sh control or E0771 sh LXR tumor cells. […] At day 15 of treatment with DDA or the solvent vehicle, the tumors were removed and the immune cells infiltrated into the tumors were analyzed by flow cytometry (see FIG. 14).
FIGS. 16A-C. The control of tumor growth and the increase in animal survival upon DDA treatment are dependent on the LXRβ expressed in tumor cells. […] The animals were monitored over time for (A) tumor growth and (B) animal survival. (C) Tumor weights were measured at the end of the experiment.

E0771 tumors [2] = test: Immune cells infiltrated into E0771 tumors (wild type, sh control, sh LXR) after DDA, flow cytometry; assay type: in vivo, mouse
Description: FIGS. 14A-D. […] mice were grafted subcutaneously with 300 000 E0771 tumor cells knocked down for the LXR (E0771 sh LXR) or with control cells (E0771 Sh control). […] 15 days post DDA treatment, the tumor cells were collected to assess by flow cytometry the CD4 Th1 cells (CD4+ Tbet+), CD4 T regulatory (Treg: CD4+ Foxp3+), CD8 T cells cytotoxic (CTL: CD8+ granzyme +)) or not (non CTL: CD8+ Granzyme −), macrophage M1 (F4/80+ CD206− CD86+) and M2 (F4/80+ CD206+ CD86−), dendritic cells CD11c+, CD11c+CD8α+ and myeloid derived suppressive cells (MDSC: CD11b+CD11clow, LY6C+ly6Gint) infiltrated into the tumors. To observe the cytotoxic CD8 T cells, the tumor suspension was prealably stimulated 2 h in vitro with a cocktail of PMA (50 ng/ml), ionomycine (500 ng/ml) and golgistop (concentration from manufacture BD Pharmagen), then the cells were stained with specific antibodies. The bars graphs represent the ratio between (A) Th1 and Treg, (B) CTL and non CTL, (C) M1 and M2 and (D) Alls DCs (CD11c+ and CD11c+ CD8α+) and MDSC infiltrated inside the tumors: E0771 sh control or E0771 Sh LXR (knocked down for LXRβ) from mice treated or not with DDA at 0.37 ug/kg. In cells expressing the LXRβ (E0771 shcontrol cells), DDA increases the infiltration of activated immune cells (Th1, CTL, macrophages M1 and DC) and decreases the infiltration of immunosuppressives cells (Treg, non CTL, M2 and MDSC).
FIGS. 15A-D. DDA treatment decreases the percentage of T regulatory CD4 T cells and increases the activated CD4+ and CD8+ T cells inside tumors. […] When tumors were palpable (50 mm3), the animals were treated with the vehicle (empty symbol) or s.c. 0.37 μg/kg of DDA (full symbol) every 2 days, once a day. […] post treatment, the animals were sacrified to collect the tumors. The tumors were dissociated by using gentlemac technology (Miltenyi) and then the suspension of tumor cells were stimulated with 50 ng/ml of PMA (Sigma), 500 ng/ml Ionomycin (Sigma) and 1/1000 of golgi stop (ebiosicence) during 3 h at 37° C. Tumor infiltrated Lymphocytes (TIL) isolated from E0711 tumors were stained with antibodies against CD45, CD8, CD4, PD-1, Foxp3, T-bet, IFN-g, Granzym B, PD-1 as well as live/dead stain. By gating on CD45+CD4+ (A-B) or CD45+CD8+ T cells populations (C-D), the tumor-infiltrating (A) T regulatory cells (Treg; Foxp3+), (B) effector CD4+ cells (Th1; T-bet+) and (C) cytotoxic CD8 T cells (CTL; IFN-γ+Granzym B+) were analyzed by flow cytometry. The vehicle condition is normalized at 1 and the graphs are representative of three independent experiments. (D). The graph represents the percentage of PD-1 negative CD8+ cells inside tumors of mice treated with vehicle or DDA and is representative of three independent experiments.
FIGS. 17A-D. The silencing of LXRβ in tumor affects the effects of DDA on T regulatory and cytotoxic CD8+ T cells population infiltrated inside tumor. Animals grafted with E0711 tumors expressing the LXRβ (square symbol) or knockdown for the LXRβ expression (circle symbol) treated in FIG. 2 were sacrified to collect tumors, 15 days post treatment with the vehicle (empty symbol) or 0.37 μg/kg of DDA (full symbol). The tumor were dissociated by using gentlemac technology (Miltenyi), and the suspension of tumor cells obtained were stimulated with 50 ng/ml of PMA (Sigma), 500 ng/ml Ionomycin (Sigma) and 1/1000 of golgi stop (ebiosicence) during 3 h at 370 to analyze by flow cytometry the phenotype of tumor-infiltrated lymphocytes. By gating on CD45+CD4+ (A-B) or CD45+CD8+ T cells populations (C-D) as well as live/dead stain, the tumor-infiltrating (A) T regulatory cells (Treg; Foxp3+), (B) effector CD4+ cells (Th1; T-bet+) and (C) cytotoxic CD8 T cells (CTL; IFN-γ+Granzym B+) were determined.

E0771 tumors [3] = test: E0771 tumor growth analysis in C57BL/6 mice treated with DDA; assay type: in vivo, mouse; conditions: 0.37 μg/kg or 20 mg/kg DDA IP every 5 days
Description: FIGS. 4A-C. Tumor growth analysis (A) Exponentially growing E0771 cells were collected, washed twice in PBS and resuspended in PBS (300,000 cells in 100 μl PBS). E0771 tumors were prepared by subcutaneous transplantation into the flanks of C57BL/6 mice. When tumor measured 50 mm3, the mice were treated every 5 days with 0.37 μg/kg or 20 mg/kg DDA or with the solvent vehicle (control).

[4] = E0771 expressing LXRβ, 0.37 μg/kg DDA IP every two days (FIG. 16)
[5] = E0771 shcontrol, 0.37 μg/kg DDA every 2 days, 15 days (FIG. 14)
[6] = decrease expression of LXRB into the tumors (FIG. 17)
[7] = tumors expressing LXRβ, 0.37 μg/kg DDA, 15 days (FIG. 17)
[8] = wild type E0771, s.c. 0.37 μg/kg DDA every 2 days (FIG. 15)

CC(C)CCCC(C)[C@H]1CCC2C3C[C@@H](NCCc4cnc[nH]4)[C@@]4(O)C[C@@H](O)CC[C@]4(C)C3CC[C@@]21C (some centres unmarked) [DDA, 5a-hydroxy-6b-[2-(1H-imidazol-4-yl)ethylamino]cholestan-3b-ol]
production of exosome secreted into the media (B16F10 cells; data not shown): 1.5 to 2 fold | amount of multivesicular bodies (MVB) (B16F10 cells; electronic microscopy): stimulates | animal survival [1, 4]: increases animal survival | tumor growth [1, 4]: inhibits tumor growth | effect on growth of tumors ([1]; E0771 sh LXR, 0.37 μg/kg DDA every 2 days (FIG. 13)): abolished | growth of tumors ([1]; E0771 sh control, 0.37 μg/kg DDA every 2 days (FIG. 13)): significantly controls the growth | number of macrophages M1 infiltrated into the tumors (E0771 tumors [2]; 0.37 μg/kg DDA (FIG. 18)): increases | ratio of dendritic cells CD11+ versus MDSC (E0771 tumors [2]; 0.37 μg/kg DDA (FIG. 19)): increases | effect of DDA on immune cell infiltration (E0771 tumors [2]; E0771 shLXR cells (FIG. 14)): significantly decreased | infiltration of activated immune cells (Th1, CTL, macrophages M1 and DC) (E0771 tumors [2]; [5]): increases | infiltration of immunosuppressives cells (Treg, non CTL, M2 and MDSC) (E0771 tumors [2]; [5]): decreases | effect of DDA on T regulatory cells infiltrated into the tumors (E0771 tumors [2]; [6]): abolished | effect of DDA on activated cytotoxic CD8+ T cells infiltrated into the tumors (E0771 tumors [2]; [6]): abolished | influence of decreased LXRB expression on DDA effect on effector Th1CD4+ (E0771 tumors [2]; [6]): had no effect | LXRβ dependence of effect on macrophages M2 (E0771 tumors [2]; shLXRβ vs LXRβ expressing tumors (FIG. 18)): independent of the LXRβ | number of T regulatory cells infiltrated into the tumors (E0771 tumors [2]; [7]): decreases | number of activated cytotoxic CD8+ T cells infiltrated into the tumors (E0771 tumors [2]; [7]): increases | number of effector Th1CD4+ cells infiltrated into the tumors (E0771 tumors [2]; [7]): increases | activated CD4+ T cells inside tumors (E0771 tumors [2]; [8]): increases | activated CD8+ T cells inside tumors (E0771 tumors [2]; [8]): increases | number of T regulatory CD4 T cells inside tumors (E0771 tumors [2]; [8]): decreases | mice survival (E0771 tumors [3]): increases mice survival | tumor growth (E0771 tumors [3]): inhibits tumor growth
